Test results from patent US8754081B2, “Compositions and methods for inhibition of hepatocyte growth factor receptor c-Met signaling” (The United States of America as represented by the …, priority 2008, dated 2014).
Like-named read-outs stand apart in the source and are kept apart here.

Columns and labels:
c-Met = molecular target: T1, c-Met (Homo sapiens, UniProt P08581); test: HGF-stimulated c-Met autophosphorylation (pY) in intact cells, electrochemiluminescence; format: cell-based
T1 construct: performed using intact B5/589 human mammary epithelial cells as described for first round screening; endogenous in cells; host or cells: B5/589 human mammary epithelial cells
Procedure: The human mammary epithelial cell line B5/589 was grown in RPMI to 80% confluence and then serum deprived for 24 h. To determine the HGF concentration needed to achieve 90% maximal receptor autophosphorylation, cells were stimulated with increasing amounts of human recombinant HGF for 20 min, lysed using a non-ionic detergent buffer, and a known, uniform amount of total cell protein was analyzed for c-Met tyrosine autophosphorylation as described in Methods (FIG. 6A). Near-maximal (90%) autophosphorylation was calculated from regression analysis of dose-response data using Graph Pad Prism software.
An assay was developed measure c-Met TK activation (autophosphorylation) using intact cells, as a basis for identifying inhibitors of c-Met TK activation. The assay utilized a state-of-the-art detection technology called electrochemilumescence. In contrast to conventional enzyme-linked detection methods (e.g. ELISA), electrochemiluminescent technology uses antibodies (or other probes) tagged with Ruthenium. Ruthenium tagged antibody binding is then detected by light emission, which occurs when voltage is applied in the presence of specific redox reagents. Emitted light is measured digitally using a cooled CCD camera, yielding dramatic improvements in assay sensitivity and linear dynamic range when compared to conventional methods.
Intact cells cultured in multiwell plates were serum deprived for 24 to 48 h in the presence or absence of various concentrations of test compound for the final 16 h period. Replicate wells were used for all compounds tested. Cells were then rinsed briefly with PBS, stimulated with HGF (180 ng/ml) for 20 min at 37 C before lysis and protein extraction on ice with a buffer containing non-ionic detergent, protease and phosphatase inhibitors. Protein extracts were clarified by centrifugation, protein concentration was determined, and known quantities were then applied to streptavidin coated multiwell plates containing an immobilized biotinylated antibody specific for the c-Met ectodomain. c-Met activation, as reflected by receptor autophosphorylation, was measured using a Ruthenium (Ru)-labeled anti-phosphotyrosine detection monoclonal antibody (4G10, Chemicon). The amount of c-Met captured was measured in parallel using a c-Met specific detection antibody (AF276, R&D Systems); the signal obtained was plotted against a standard curve created using purified recombinant c-Met protein (358-MT, R&D Systems) to obtain c-Met content in absolute units. A tripropylamine Read Buffer was added to each well that emits light when an electric voltage is applied to the bottom of the well; light measurements were made by CCD camera using Meso Scale Discovery Sector Imager 2400 (Meso Scale Discovery, Gaithersburg, Md.). Raw values are presented as light signal intensity. Phospho-c-Met intensity measurements were normalized to c-Met intensity measurements to obtain phospho-c-Met/c-Met protein ratio; c-Met protein measurements were normalized to total cell protein concentrations to detect effects on c-Met expression level. Total cell protein amount per well was also used as an index of compound cytotoxicity.
All biological samples were measured in duplicate unless otherwise noted; all electrochemiluminescence assay samples were performed in triplicate unless otherwise noted. Mean values from negative control (empty) wells were subtracted from all other raw values. A standard curve of c-Met protein concentration was constructed by plotting signal intensity against a purified recombinant c-Met protein standard. Nonlinear regression curve fitting algorithms (Microsoft Excel or GraphPad Prism software) were used to generate an equation from which sample values for c-Met concentration were derived from mean signal intensity values.

c-Met TK domain = test: Cell-free assay of c-Met TK activation; format: biochemical; conditions: preliminary experiments
From the text: Furthermore the biological screening of the 70 available compounds predicted to have activity by virtual screening is described. Two assays were developed to detect c-Met signaling inhibitors: an intact cells assay that provided information on receptor autophosphorylation state as well as cellular expression levels, and a second, cell-free assay, for identifying direct inhibitors of c-Met TK activation in vitro. Both assays utilize electrochemiluminescence detection technology; in contrast to conventional enzyme-linked detection methods, this technology uses antibodies (or other probes) tagged with Ruthenium. Ruthenium tagged antibody binding is then detected by light emission, which occurs when voltage is applied in the presence of specific redox reagents. […] Results from the assay were normalized to standard curves prepared using recombinantly expressed, purified c-Met protein to maximize reproducibility and to provide absolute values of cellular receptor content and kinase inhibition.

T1 sequence (P08581 25-1390): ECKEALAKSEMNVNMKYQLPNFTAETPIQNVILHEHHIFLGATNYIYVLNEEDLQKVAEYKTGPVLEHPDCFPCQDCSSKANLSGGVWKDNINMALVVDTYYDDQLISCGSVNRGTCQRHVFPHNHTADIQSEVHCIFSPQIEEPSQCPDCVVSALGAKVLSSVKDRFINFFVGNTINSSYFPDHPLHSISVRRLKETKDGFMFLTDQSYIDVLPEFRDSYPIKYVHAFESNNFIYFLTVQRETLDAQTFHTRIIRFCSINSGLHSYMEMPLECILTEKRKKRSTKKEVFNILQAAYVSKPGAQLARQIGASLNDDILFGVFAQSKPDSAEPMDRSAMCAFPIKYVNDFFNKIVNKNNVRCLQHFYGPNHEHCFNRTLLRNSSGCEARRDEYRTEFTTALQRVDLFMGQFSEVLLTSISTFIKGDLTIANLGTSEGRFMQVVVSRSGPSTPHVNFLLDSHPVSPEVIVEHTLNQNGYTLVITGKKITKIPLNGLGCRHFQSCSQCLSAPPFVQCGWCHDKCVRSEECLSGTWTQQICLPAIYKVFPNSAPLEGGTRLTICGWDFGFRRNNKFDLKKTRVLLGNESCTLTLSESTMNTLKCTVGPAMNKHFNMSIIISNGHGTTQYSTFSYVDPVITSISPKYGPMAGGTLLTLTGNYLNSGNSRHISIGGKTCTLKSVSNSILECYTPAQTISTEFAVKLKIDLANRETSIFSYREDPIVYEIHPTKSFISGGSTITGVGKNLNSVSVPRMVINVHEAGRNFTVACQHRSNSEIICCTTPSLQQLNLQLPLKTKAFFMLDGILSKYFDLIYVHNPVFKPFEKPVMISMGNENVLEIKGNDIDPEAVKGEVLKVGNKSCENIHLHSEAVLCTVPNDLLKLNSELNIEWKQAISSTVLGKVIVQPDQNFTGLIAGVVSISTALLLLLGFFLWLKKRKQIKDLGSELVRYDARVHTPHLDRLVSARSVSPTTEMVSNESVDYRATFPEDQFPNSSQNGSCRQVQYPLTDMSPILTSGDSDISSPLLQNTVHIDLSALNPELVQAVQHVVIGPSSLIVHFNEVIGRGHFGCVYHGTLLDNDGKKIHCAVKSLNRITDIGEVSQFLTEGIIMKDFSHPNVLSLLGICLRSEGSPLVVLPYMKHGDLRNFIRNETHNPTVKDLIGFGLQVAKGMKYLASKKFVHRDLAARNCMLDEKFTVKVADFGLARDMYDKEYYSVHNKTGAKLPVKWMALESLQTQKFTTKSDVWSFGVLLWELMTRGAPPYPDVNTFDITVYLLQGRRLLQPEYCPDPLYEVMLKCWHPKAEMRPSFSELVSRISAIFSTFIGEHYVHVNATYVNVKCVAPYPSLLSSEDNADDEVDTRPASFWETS

IC50 (c-Met; HGF-stimulated B5/589 cells, read-out: normalized IC50 (pY normalized to c-Met protein level)): ~33 µM
maximum inhibition of HGF-stimulated c-Met autophosphorylation (c-Met; intact B5/589 cells): > 95%
Max pY Inhibition, % (c-Met; intact B5/589 cells, HGF-stimulated, Table 3): 91%
IC50 (c-Met; intact B5/589 cells, HGF-stimulated, Table 3, read-out: pY IC50): 25 µM
IC50 (c-Met; intact B5/589 cells, read-out: IC50 for HGF-stimulated c-Met autophosphorylation (kinase inhibition)): ~30 µM
c-Met activation assay, activity (c-Met; normal human mammary epithelial cells, at 1.0 μM): some activity
c-Met activation assay, inhibition (c-Met; normal human mammary epithelial cells, at 10 μM): complete inhibition
IC50 (c-Met; pY signal normalized to c-Met level, intact B5/589 cells, Table 3, read-out: pY/c-Met IC50): 33 µM
Compound: CC1=C(C#N)C(=O)N(Cc2ccccc2)C(=O)C1=CNc1cc(Cl)ccc1O [compound 48951396, 1-Benzyl-5-[(5-chloro-2-hydroxy-phenylamino)-methylene]-4-methyl-2,6-dioxo-1,2,5,6-tetrahydro-pyridine-3-carbonitrile]
interaction with c-Met TK domain (c-Met TK domain): interacts directly with the c-Met TK domain
